Source: US10487054B2, “Therapeutic compounds” (REGENTS OF THE UNIVERSITY OF MINNESOTA, priority 2017, dated 2019)

Tests used:
Format in all cases: cell-based, human
[1] = test system: AP-1 activity in A431 cells; experiment: AP-1 luciferase reporter assay in control or TOPK knockdown cells
Procedure: The cells were cultured, treated for 4 h with different concentrations of compound 1 and then exposed to SUV (60 kJ UVA/m^2 and 2.9 kJ UVB/m^2), followed by an additional 15-minute incubation. Cells were harvested and the levels of phosphorylated and total proteins were determined by Western blot analysis with specific antibodies as indicated. […] The cells were cultured and treated with different concentrations of compound 1 for 24 h. Cells were harvested and the levels of phosphorylated and total proteins were determined by Western blot analysis with specific antibodies as indicated. […] For the luciferase assay, JB6 P+ cells stably transfected with an AP-1 luciferase reporter plasmid were cultured. […] Luciferase activity was measured and AP-1 activity is expressed relative to control cells without SUV treatment. […] Luciferase and 3-galactosidase activities were measured using reagents included in the reporter assay system (right). […] Significant differences were evaluated using one-way ANOVA and the asterisks (*) indicate a significant effect (*, p<0.05; **, p<0.001; ***, p<0.0001). […]
Stable control or TOPK knockdown cells were co-transfected with 100 ng of the AP-1 luciferase reporter plasmid and 50 ng of an internal control […] plasmid. […] Luciferase and β-galactosidase activities were measured using the Luminoskan Ascent and Multiskan MCC (Labsystems), respectively. […]

A431 cells = experiment: Crystal violet staining cell proliferation assay; settings: dose-dependent, several days
Procedure: (§1) Cells were exposed to EGF (10 ng/ml) and treated with increasing concentrations of compound 1. Representative photographs are shown and data are presented as mean values±S.D. from triplicate experiments. […] Cells were treated with different concentrations of compound 1 for several days and cell proliferation was determined by a crystal violet staining assay.
(§2) Cell proliferation was determined by a crystal violet staining assay. Cells (3×10^4/well) were seeded into 24-well plates. After an overnight incubation, cells were treated with different concentrations of compound 1 and incubated for several days. Then, each well was washed 3 times with phosphate buffered saline (PBS) and stained with 0.2% (w/v) crystal violet in 2% (v/v) ethanol. After 10 min, cells were washed 3 times with distilled water, and the remaining dye was dissolved in 0.5% (w/v) sodium dodecyl sulfate in 50% (v/v) ethanol. Absorbance was measured at an optical density of 540 nm using the Thermo Multiskan plate-reader (Thermo Fisher Scientific).

SCC12 cells = experiment: Crystal violet staining cell proliferation assay; settings: dose-dependent, several days
Procedure: as §1, §2

O=C1Nc2ccc(C34CC5CC(CC(C5)C3)C4)cc2C1=NO [compound 1, 5-(adamantan-1-yl)-3-(hydroxyimino)indolin-2-one]
AP-1 activity ([1]; A431 TOPK knockdown group, highest concentration (5 μM)): only slightly affected | AP-1 activity ([1]; A431 control group, 24 h): inhibited by compound 1 in a dose-dependent manner | cell proliferation (A431 cells): strongly decreased | cell proliferation (SCC12 cells): strongly decreased
